The values that follow come from patent US20220378711A1, “PH-Responsive Nanoparticles for Treating Cancer” (United States Government as represented by the Department …, priority 2021, published 2022).

In general, pKa refers to the pH at which an ionisable group is half protonated.

The test system of data set [1] is Panc-1 cells. The data set is described as follows: MTT cell viability and CompuSyn synergy assay. It counts as cell-based. As to conditions: Panc-1, 72 h MTT. As to the method:
(§1) PDAC cells (5000 cells/well) were seeded in 96-well plates and, 24 h later, cells were treated with different concentrations of nanocapsulated SCH 772984, DEM, or their combinations. Control cells were treated with an equivalent level of DMSO. Drug concentrations were optimized for the cell-based assay of the individual drug. At 72 h after treatment, the cell viability assay was performed by adding 10 μL of the 3-(4,5-dimethylthiazol-2-yl)-2,5-diphenyltetrazolium bromide (MTT) reagent to each well, and the plates were incubated for 3 h at 37° C. The MTT reagent was removed, DMSO (100 μL/well) was added to solubilize the crystals, and absorbance was measured at 570 nm. Synergy analysis was performed using CompuSyn software.
(§2) The data was fitted in CompuSyn. These two cell lines were selected because MIA PaCa-2 cells are responsive to ERKi and GEM compared to Panc-1. […] However, consistent with previous studies, the Panc-1 cells were more resistant to these drugs compared to MIA PaCa-2 cells.

The subject of data set [2] is MIA PaCa-2 cells. The data set can be described thus: MTT cell viability and CompuSyn synergy assay. It counts as cell-based. The following applies: MIA PaCa-2, 72 h MTT. On the procedure: as §1, §2
Data set [3] in a line: LC-MS drug concentration in tumor xenograft tissue. It is filed as in vivo, nude mice. The following applies: nude, mouse, intraperitoneal, injected ip as drug-pH NPs, 75 mg/kg SCH772984, 40 mg/kg GEM, read-out: drug concentration in tumor tissues. As to the method:
LC-MS analysis of drugs was performed on a Q-TOF Synapt G2S mass spectrometer (Waters, Milford, Mass.) coupled with an Acquity UPLC system (Waters). Drugs were resolved on an ACUITY UPLC HSS T3 column ([…], 100 Å pore diameter, 2.1 mm×150 mm, Waters) with an acetonitrile/water gradient containing 0.1% formic acid. GEM was detected as [M+H]+, and SCH 772984 was detected as [M+2H]2+ in a positive ESI mode.
Next, in vivo studies to obtain information on the systemic stability and tumor enrichment capacity of pH NPs were performed. The fate of drug-encapsulated nanoparticles in the MIA PaCa-2-pancreatic tumor xenograft model in immune-compromised nude mice was studied. Upon intraperitoneal (ip) administration of free or drug-pH NPs [75 mg/kg for SCH772984 and 40 mg/kg for GEM; human equivalent dose (HED)] for 48 h in tumor-bearing mice (N=3), the drug concentrations in tumor tissues was measured using LC-MS.

Data set [4] relates to MIA PaCa-2 cells. The data set is described as follows: Clonogenic survival assay. It counts as cell-based. On the procedure:
PDAC cells were seeded at a density of 400 cells/well in 6-well plates. The following day, cells were treated with nanoencapsulated ERKi at a concentration of 0.01 nM, carrier-encapsulated GEM at a concentration of 0.1 nM, and a combination of 0.01 nM encapsulated ERKi, and 0.1 nM encapsulated GEM for 12 days. After the incubation time, the medium was removed, and the cells were fixed with 3:1 methanol/glacial acetic acid for 15 min at room temperature. After the fixing reagent was removed, the cells were stained with 0.5% crystal violet solution (in methanol) for 15 min. The plates were washed thoroughly with tap water to remove residual crystal violet. The plates were dried overnight, and the colonies were counted using Colony Doc-It imaging station using Colony Doc-It imaging software.
To examine the link between ERK and GEM resistance in PDAC cells, a Clonogenic assay was performed for anchorage-dependent growth in MIA PaCa-2 and Panc-1 cell lines in the presence or absence of free or encapsulated ERKi (10 nM) or GEM (100 nM) alone or a combination of these two drugs for 12 days. The half-effective doses of encapsulated ERKi or encapsulated GEM was purposely selected from the preceding studies shown in FIG. 6 and FIG. 7 because these doses of free-drugs have minimal or no effect on PDAC cell viability (FIG. 6) and ERK phosphorylation (FIG. 7).

The conditions of data set [5]: cited from earlier work.
Data set [6] deals with ERK phosphorylation (p44/p42 MAPK/ERK1/2). The data set can be described thus: Western blot of ERK activity in PDAC cells. It is filed as cell-based. On the procedure:
Western blot analysis was the same as described in Mol. Cancer Ther. 2019, 18, 788-800. Briefly, cells were seeded at a cell density of 500,000 cells/well in 6-well plates. About 60% of confluent cells were treated with nanoparticles alone (NPA), free ERKi (FEI), or encapsulated ERKi (EEI) for 3 h at 0.001, 0.01, 0.1, 1, and 10 nM concentrations of the drug. Cells were lysed in a lysis buffer (50 mmol/L Tris pH7.4, 150 mmol/L sodium chloride, 1% NP-40, 0.25% sodium deoxycholate, 1 mmol/L EDTA) containing PMSF and Protease/Phosphatase Inhibitor Cocktail (Cell Signaling Technologies). Proteins were quantified with the Pierce BCA protein assay kits (Thermo Fisher Scientific). Under reducing conditions, a […] sample was loaded onto 10% SDS gels for the separation of proteins, and the resulting gel was transferred onto a […] nitrocellulose membrane. The blots were then immersed in a 5% blocking buffer made in Tris base and Tween-20 followed by incubation with antibodies against total-ERK and phospho-ERK primary antibodies (Cell Signaling Technologies; diluted in blocking buffer at 1:1000) overnight. The secondary antibody was incubated for 1 h at room temperature. The signal from the blots was detected using the Super Signal West Femto Maximum Sensitivity substrate (Thermo Fisher).
To determine the functional efficacy of ERKi-pH NPs, the question of whether encapsulated ERKi SCH 772984 can suppress the ERK activity by suppressing ERK phosphorylation (p44/p42 MAPK/ERK1/2) in PDAC cells was investigated. To do so, MIA PaCa-2 cells were exposed to nanoparticles free of SCH 772984 or encapsulated with SCH 772984 with different doses (0.1-100 nM) for 3 hours. Following treatment, total, phospho-ERK, RSK, and GAPDH were determined using Western blot analysis in the cell extracts.

The conditions of data set [7]: cited from earlier work. This is another data set of the same source.

Where two headings read alike, the source gives them in different places.

Consider `Nc1ccn([C@@H]2O[C@H](CO)[C@@H](O)C2(F)F)c(=O)n1` [GEM, gemcitabine], for which the “IC50 of free drug compared with encapsulated drug” value in data set [1] and in data set [2] was “markedly higher” each time. In addition, the concentration at 48 h in data set [3] was about 4 ng/g. Also, in data set [4] (MIA PaCa-2, 12 days, ERKi 10 nM, GEM 100 nM), the “survival and colony-forming ability” value was “decrease the colony-forming ability of these cells significantly”.
Consider `CCCCNCCNCCCC` [N,N′-dibutylethylenediamine], for which the pKa in data set [5] is on record as 4.0.
In the case of `O=C(Nc1ccc2[nH]nc(-c3ccncc3)c2c1)[C@@H]1CCN(CC(=O)N2CCN(c3ccc(-c4ncccn4)cc3)CC2)C1` [SCH 772984], the “IC50 of free drug compared with encapsulated drug” value in data set [1] and in data set [2] was “markedly higher” each time. For the same molecule, the “change of pERK level, less than 10 nM encapsulated ERKi” value in data set [6] (10 nM, MIA PaCa-2) came out at 2.4 fold. The “total ERK and total RSK expression” value in data set [6] (MIA PaCa-2, 3 hours) is “did not affect”. Also, the “p-ERK and p-RSK levels” value in data set [6] (MIA PaCa-2, 3 hours, dose-dependent) is listed as “markedly decreased”. For the same molecule, the “concentration at which inhibitory effect on p-ERK/p-RSK was first detected” value in data set [6] (MIA PaCa-2, 3 hours, doses 0.1-100 nM) was 100 nM. The solubility entry in data set [7] is given as “low water solubility”; in data set [7] (listed as unencapsulated ERKi), “extremely poor solubility”. For the same molecule, the concentration at 48 h in data set [3] is about 2 ng/g. In addition, the “effect of ERKi on GEM's effect on PDAC cells” value in data set [4] (ERKi at minimum inhibitory concentration (0.01 nM)) is “significantly enhances”.
